How the values were obtained:
MCF-7 cells = assay: Breast cancer cell viability assay (CellTiter-Glo, 5 days); format: cell-based; conditions: 5 days' compound exposure; for IC50: Homo sapiens, MCF7, 120 h
In short: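 Eleven-point semilog compound series, final 0.3-0.000003 μM, added to overnight-adhered MCF-7 cells (320/well; RPMI, 10% FBS, 20 mM HEPES) for 5 days. Viability read by CellTiter-Glo luminescence, background from medium without cells subtracted, expressed relative to untreated cells.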

ER-α in MCF-7 cells = target: T1, ER-α in MCF-7 cells (Homo sapiens, UniProt P03372); assay: Breast cancer cell ER-α in cell western assay (SP1); format: cell-based; set-up: endogenous in cells; host or cells: MCF-7; conditions: 4 or 24 hr post compound addition; for Emax: MCF7, SP1 antibody, read-out: ER-α In Cell Western Assay (SP1) Max Response; for DC50: SP1 antibody, read-out: ER-α In Cell Western Assay (SP1) IC50
T1 sequence (P03372 1-595): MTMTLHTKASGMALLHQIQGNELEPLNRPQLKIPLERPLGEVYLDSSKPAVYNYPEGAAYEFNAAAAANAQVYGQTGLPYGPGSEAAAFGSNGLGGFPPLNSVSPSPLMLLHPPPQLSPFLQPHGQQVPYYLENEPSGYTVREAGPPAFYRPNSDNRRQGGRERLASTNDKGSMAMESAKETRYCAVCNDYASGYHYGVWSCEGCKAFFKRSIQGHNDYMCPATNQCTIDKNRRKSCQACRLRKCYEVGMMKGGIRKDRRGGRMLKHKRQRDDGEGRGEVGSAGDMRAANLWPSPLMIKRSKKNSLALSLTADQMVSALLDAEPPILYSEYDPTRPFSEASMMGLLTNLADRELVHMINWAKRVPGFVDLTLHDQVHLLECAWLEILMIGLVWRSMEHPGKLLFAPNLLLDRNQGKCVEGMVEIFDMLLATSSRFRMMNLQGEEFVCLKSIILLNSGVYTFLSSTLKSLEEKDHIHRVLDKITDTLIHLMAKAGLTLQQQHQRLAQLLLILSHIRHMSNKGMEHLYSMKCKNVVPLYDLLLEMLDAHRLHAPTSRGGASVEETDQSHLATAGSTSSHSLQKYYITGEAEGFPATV
In short: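 Read-out is infrared in-cell western: SP1-detected ER intensity at 800 nm divided by DRAQ5 DNA intensity at 700 nm, relative to untreated wells ×100.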

Row | SMILES | IC50 (MCF-7 cells) | Emax (ER-α in MCF-7 cells) | DC50 (ER-α in MCF-7 cells) | MCF7 Viability Assay Max Response (MCF-7 cells)
1 | CC/C(=C(/c1ccc(/C=C/C(=O)O)cc1)c1ccc2[nH]ncc2c1)c1ccc(C(=O)NC)cc1F [Compound 213, (E)-3-(4-((E)-2-(2-Fluoro-4-(methylcarbamoyl)phenyl)-1-(1H-indazol-5-yl)but-1-en-1-yl)phenyl)acrylic acid] | > 0.1 µM | ≥ 40% | > 0.1 µM | + (+ = a single % value < 40%)
2 | CC/C(=C(/c1ccc(/C=C/C(=O)O)cc1)c1ccc2[nH]ncc2c1)c1cccnc1C [Compound 217, (E)-3-(4-((E)-1-(1H-Indazol-5-yl)-2-(2-methylpyridin-3-yl)but-1-en-1-yl)phenyl)acrylic acid] | > 0.1 µM | ≥ 40% |  | ++ (++ = a single % value ≧ 40%)
3 | CC/C(=C(/c1ccc(/C=C/C(=O)O)cc1)c1ccc2[nH]ncc2c1)c1cnccc1C [Compound 218, (E)-3-(4-((E)-1-(1H-Indazol-5-yl)-2-(4-methylpyridin-3-yl)but-1-en-1-yl)phenyl)acrylic acid] | > 0.1 µM | ≥ 40% |  | ++ (++ = a single % value ≧ 40%)
4 | CC/C(=C(/c1ccc(/C=C/C(=O)O)cc1)c1ccc2[nH]ncc2c1)c1cnccn1 [Compound 219, (E)-3-(4-((E)-1-(1H-Indazol-5-yl)-2-(pyrazin-2-yl)but-1-en-1-yl)phenyl)acrylic acid] | > 0.1 µM | ≥ 40% | > 0.1 µM | ++ (++ = a single % value ≧ 40%)
5 | CC/C(=C(/c1ccc(/C=C/C(=O)O)cc1)c1ccc2[nH]ncc2c1)c1cncnc1 [Compound 220, (E)-3-(4-((E)-1-(1H-Indazol-5-yl)-2-(pyrimidin-5-yl)but-1-en-1-yl)phenyl)acrylic acid] | > 0.1 µM | < 40% | > 0.1 µM | + (+ = a single % value < 40%)
6 | CC/C(=C(/c1ccc(/C=C/C(=O)O)cc1)c1ccc2[nH]ncc2c1)c1cnnn1C [Compound 221, (E)-3-(4-((E)-1-(1H-Indazol-5-yl)-2-(1-methyl-1H-1,2,3-triazol-5-yl)but-1-en-1-yl)phenyl)acrylic acid] | > 0.1 µM | < 40% | > 0.1 µM | + (+ = a single % value < 40%)
7 | CC/C(=C(/c1ccc(/C=C/C(=O)O)cc1)c1ccc2[nH]ncc2c1)c1cnsc1 [Compound 225, (E)-3-(4-((E)-1-(1H-Indazol-5-yl)-2-(isothiazol-4-yl)but-1-en-1-yl)phenyl)acrylic acid] | > 0.1 µM | ≥ 40% | > 0.1 µM | ++ (++ = a single % value ≧ 40%)
8 | CC/C(=C(/c1ccc(/C=C/C(=O)O)cc1)c1ccc2[nH]ncc2c1)c1cnc(C)s1 [Compound 229, (E)-3-(4-((E)-1-(1H-Indazol-5-yl)-2-(2-methylthiazol-5-yl)but-1-en-1-yl)phenyl)acrylic acid] | > 0.1 µM | ≥ 40% | > 0.1 µM | ++ (++ = a single % value ≧ 40%)
9 | CC/C(=C(/c1ccc(/C=C/C(=O)O)cc1)c1ccc2[nH]ncc2c1)c1ccc2c(c1)OCO2 [Compound 240, (E)-3-(4-((E)-2-(Benzo[d][1,3]dioxol-5-yl)-1-(1H-indazol-5-yl)but-1-en-1-yl)phenyl)acrylic acid] | ≤ 0.1 µM | ≥ 40% | ≤ 0.1 µM | ++ (++ = a single % value ≧ 40%)
10 | CC/C(=C(/c1ccc(/C=C/C(=O)O)cc1)c1ccc2[nH]ncc2c1)c1sccc1C [Compound 241, (E)-3-(4-((E)-1-(1H-Indazol-5-yl)-2-(3-methylthiophen-2-yl)but-1-en-1-yl)phenyl)acrylic acid] | ≤ 0.1 µM | ≥ 40% | ≤ 0.1 µM | ++ (++ = a single % value ≧ 40%)
11 | CC/C(=C(/c1ccc(/C=C/C(=O)O)cc1)c1ccc2[nH]ncc2c1F)c1cscc1C [Compound 242, (E)-3-(4-((E)-1-(4-Fluoro-1H-indazol-5-yl)-2-(4-methylthiophen-3-yl)but-1-en-1-yl)phenyl)acrylic acid] | ≤ 0.1 µM | ≥ 40% | ≤ 0.1 µM | ++ (++ = a single % value ≧ 40%)

More lines, main results first:

Row | IC50 (MCF-7 cells) | Emax (ER-α in MCF-7 cells) | DC50 (ER-α in MCF-7 cells) | SMILES | MCF7 Viability Assay Max Response (MCF-7 cells)
12 | ≤ 0.1 µM | ≥ 40% | ≤ 0.1 µM | CC/C(=C(/c1ccc(/C=C/C(=O)O)cc1)c1ccc2[nH]ncc2c1)c1ccsc1C [Compound 214, (E)-3-(4-((E)-1-(1H-Indazol-5-yl)-2-(2-methylthiophen-3-yl)but-1-en-1-yl)phenyl)acrylic acid] | ++ (++ = a single % value ≧ 40%)
13 | ≤ 0.1 µM | ≥ 40% | ≤ 0.1 µM | CC/C(=C(/c1ccc(/C=C/C(=O)O)cc1)c1ccc2[nH]ncc2c1)c1cccnc1C(F)(F)F [Compound 222, (E)-3-(4-((E)-1-(1H-Indazol-5-yl)-2-(2-(trifluoromethyl)pyridin-3-yl)but-1-en-1-yl)phenyl)acrylic acid] | ++ (++ = a single % value ≧ 40%)
14 | ≤ 0.1 µM | ≥ 40% |  | CC/C(=C(/c1ccc(/C=C/C(=O)O)cc1)c1ccc2[nH]ncc2c1)c1cscc1C [Compound 223, (E)-3-(4-((E)-1-(1H-Indazol-5-yl)-2-(4-methylthiophen-3-yl)but-1-en-1-yl)phenyl)acrylic acid] | ++ (++ = a single % value ≧ 40%)
15 | ≤ 0.1 µM | ≥ 40% | ≤ 0.1 µM | CC/C(=C(/c1ccc(/C=C/C(=O)O)cc1)c1ccc2[nH]ncc2c1F)c1ccncc1Cl [Compound 224, (E)-3-(4-((E)-2-(3-Chloropyridin-4-yl)-1-(4-fluoro-1H-indazol-5-yl)but-1-en-1-yl)phenyl)acrylic acid] | ++ (++ = a single % value ≧ 40%)
16 | ≤ 0.1 µM | ≥ 40% |  | CC/C(=C(/c1ccc(/C=C/C(=O)O)cc1)c1ccc2[nH]ncc2c1)c1ccncc1C [Compound 226, (E)-3-(4-((E)-1-(1H-Indazol-5-yl)-2-(3-methylpyridin-4-yl)but-1-en-1-yl)phenyl)acrylic acid] | ++ (++ = a single % value ≧ 40%)
17 | ≤ 0.1 µM | ≥ 40% | ≤ 0.1 µM | CC/C(=C(/c1ccc(/C=C/C(=O)O)cc1)c1ccc2[nH]ncc2c1)c1ccc(C)s1 [Compound 227, (E)-3-(4-((E)-1-(1H-Indazol-5-yl)-2-(5-methylthiophen-2-yl)but-1-en-1-yl)phenyl)acrylic acid] | ++ (++ = a single % value ≧ 40%)
18 | ≤ 0.1 µM | ≥ 40% | ≤ 0.1 µM | O=C(O)/C=C/c1ccc(/C(=C(/CCF)c2ccncc2Cl)c2ccc3[nH]ncc3c2)cc1 [Compound 230, (E)-3-(4-((E)-2-(3-Chloropyridin-4-yl)-4-fluoro-1-(1H-indazol-5-yl)but-1-en-1-yl)phenyl)acrylic acid] | ++ (++ = a single % value ≧ 40%)
19 | ≤ 0.1 µM | ≥ 40% | ≤ 0.1 µM | CC/C(=C(/c1ccc(/C=C/C(=O)O)cc1)c1ccc2[nH]ncc2c1)c1ccncc1F [Compound 231, (E)-3-(4-((E)-2-(3-Fluoropyridin-4-yl)-1-(1H-indazol-5-yl)but-1-en-1-yl)phenyl)acrylic acid] | ++ (++ = a single % value ≧ 40%)
20 | ≤ 0.1 µM | ≥ 40% | ≤ 0.1 µM | CC/C(=C(/c1ccc(/C=C/C(=O)O)cc1)c1ccc2nccn2c1)c1ccc(Cl)cc1Cl [Compound 232, (E)-3-(4-((E)-2-(2,4-Dichlorophenyl)-1-(imidazo[1,2-a]pyridin-6-yl)but-1-en-1-yl)phenyl)acrylic acid] | ++ (++ = a single % value ≧ 40%)
21 | ≤ 0.1 µM | ≥ 40% | ≤ 0.1 µM | CC/C(=C(/c1ccc(/C=C/C(=O)O)cc1)c1ccc2nccn2c1)c1ccc(F)cc1C(F)(F)F [Compound 233, (E)-3-(4-((E)-2-(4-Fluoro-2-(trifluoromethyl)phenyl)-1-(imidazo[1,2-a]pyridin-6-yl)but-1-en-1-yl)phenyl)acrylic acid] | ++ (++ = a single % value ≧ 40%)
22 | ≤ 0.1 µM | ≥ 40% | ≤ 0.1 µM | CC/C(=C(/c1ccc(/C=C/C(=O)O)cc1)c1ccc2[nH]ncc2c1)c1ccnc(OC)c1 [Compound 236, (E)-3-(4-((E)-1-(1H-Indazol-5-yl)-2-(2-methoxypyridin-4-yl)but-1-en-1-yl)phenyl)acrylic acid] | ++ (++ = a single % value ≧ 40%)

Reference: patent US9399646B2 (Genentech, Inc., priority 2010, dated 2016)
